The source of these data is PMC5461819 (Peptides, 2015).

For test [1], the target named is T1, human BRS-3 (Homo sapiens, UniProt P32247).
T1 sequence (P32247 1-399): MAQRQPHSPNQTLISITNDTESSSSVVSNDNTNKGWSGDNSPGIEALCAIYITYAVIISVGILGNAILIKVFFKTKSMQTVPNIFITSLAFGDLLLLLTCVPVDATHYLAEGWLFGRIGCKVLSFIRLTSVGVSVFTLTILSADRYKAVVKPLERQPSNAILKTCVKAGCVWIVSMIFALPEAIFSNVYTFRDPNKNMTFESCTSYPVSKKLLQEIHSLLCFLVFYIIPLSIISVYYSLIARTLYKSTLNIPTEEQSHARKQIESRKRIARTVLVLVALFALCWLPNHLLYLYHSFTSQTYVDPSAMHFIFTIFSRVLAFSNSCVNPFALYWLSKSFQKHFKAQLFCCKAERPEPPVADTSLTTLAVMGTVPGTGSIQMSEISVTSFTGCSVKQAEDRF
The experiment in a line: Binding studies, inhibition of 125I-[D-Tyr6,β-Ala11,Phe13,Nle14]Bn-. The note with it: hBRS-3/BALB cells.

For test [2], the target named is T1, human BRS-3. In words: [3H]Inositol phosphate generation. It counts as cell-based. The note with it: for EC50: read-out: EC50 Human BRS-3 hBRS-3/BALB, [3H]IP production, 60 min, 37°C.
Another test has as its target human GRPR (Homo sapiens, UniProt P30550). In words: [3H]Inositol phosphate generation, hGRPR/BALB cells. It counts as cell-based. The following applies: read-out: EC50 Human GRPR hGRPR/BALB; [3H]IP production, 60 min, 37°C.
The target of a further test is human NMBR (Homo sapiens, UniProt P28336). The experiment in a line: [3H]Inositol phosphate generation, hNMBR/BALB cells. It counts as cell-based. The note with it: read-out: EC50 Human NMBR hNMBR/BALB; [3H]IP production, 60 min, 37°C.
In the next test the target is T2, rat BRS-3 (Rattus norvegicus, UniProt Q8K418).
T2 sequence (Q8K418 1-399): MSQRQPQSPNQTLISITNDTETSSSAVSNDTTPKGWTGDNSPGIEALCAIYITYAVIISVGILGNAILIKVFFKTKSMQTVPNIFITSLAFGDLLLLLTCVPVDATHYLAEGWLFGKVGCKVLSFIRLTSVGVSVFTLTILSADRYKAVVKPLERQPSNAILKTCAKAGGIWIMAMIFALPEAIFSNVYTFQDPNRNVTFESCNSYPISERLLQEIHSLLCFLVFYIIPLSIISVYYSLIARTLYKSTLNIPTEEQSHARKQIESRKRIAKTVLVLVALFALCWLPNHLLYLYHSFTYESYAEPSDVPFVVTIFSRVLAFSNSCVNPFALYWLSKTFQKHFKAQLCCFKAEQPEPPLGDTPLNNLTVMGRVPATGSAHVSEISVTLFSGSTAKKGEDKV
The experiment in a line: [3H]Inositol phosphate generation, rBRS-3/BALB cells. In kind it is cell-based. The note with it: for EC50: read-out: EC50 Rat BRS-3 rBRS-3/BALB, [3H]IP production, 60 min, 37°C.

A further test deals with rat GRPR (Rattus norvegicus, UniProt P52500). In words: [3H]Inositol phosphate generation, rGRPR/AR42J cells. In kind it is cell-based. The note with it: read-out: EC50 Rat GRPR rGRPR/AR42J; [3H]IP production, 60 min, 37°C.
For the next test, the target named is T3, rat NMBR (Rattus norvegicus, UniProt P24053).
T3 sequence (P24053 1-390): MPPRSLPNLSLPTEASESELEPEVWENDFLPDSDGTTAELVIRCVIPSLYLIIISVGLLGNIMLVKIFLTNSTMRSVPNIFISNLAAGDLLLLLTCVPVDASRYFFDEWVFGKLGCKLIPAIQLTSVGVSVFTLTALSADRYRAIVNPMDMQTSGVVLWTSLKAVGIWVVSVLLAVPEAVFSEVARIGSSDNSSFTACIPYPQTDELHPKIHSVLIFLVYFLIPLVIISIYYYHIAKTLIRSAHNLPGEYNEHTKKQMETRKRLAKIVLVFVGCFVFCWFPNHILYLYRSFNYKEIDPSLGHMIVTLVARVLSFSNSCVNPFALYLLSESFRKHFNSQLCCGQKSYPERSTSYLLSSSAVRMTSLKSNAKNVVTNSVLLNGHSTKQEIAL
In words: [3H]Inositol phosphate generation, rNMBR/BALB cells. It counts as cell-based. The note with it: read-out: EC50 Rat NMBR rNMBR/BALB; [3H]IP production, 60 min, 37°C.

The next test concerns the target T4, mouse BRS-3 (Mus musculus, UniProt O54798).
T4 sequence (O54798 1-399): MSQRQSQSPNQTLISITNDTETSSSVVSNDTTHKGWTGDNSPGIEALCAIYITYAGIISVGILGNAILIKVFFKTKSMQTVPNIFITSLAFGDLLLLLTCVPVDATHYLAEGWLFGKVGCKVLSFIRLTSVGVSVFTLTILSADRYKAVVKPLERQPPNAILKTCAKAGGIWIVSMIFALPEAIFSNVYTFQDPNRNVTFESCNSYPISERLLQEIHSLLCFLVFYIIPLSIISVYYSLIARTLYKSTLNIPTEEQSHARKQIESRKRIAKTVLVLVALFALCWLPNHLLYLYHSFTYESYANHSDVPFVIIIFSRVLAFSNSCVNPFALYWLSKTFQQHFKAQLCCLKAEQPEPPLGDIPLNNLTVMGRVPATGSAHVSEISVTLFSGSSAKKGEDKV
In words: [3H]Inositol phosphate generation, mBRS-3/BALB cells. It counts as cell-based. The note with it: for EC50: read-out: EC50 Mouse BRS-3 mBRS-3/BALB, [3H]IP production, 60 min, 37°C.

In a further test the target is mouse GRPR (Mus musculus, UniProt P21729). In words: [3H]Inositol phosphate generation, mGRPR/BALB cells. It counts as cell-based. The following applies: read-out: EC50 Mouse GRPR mGRPR/BALB; [3H]IP production, 60 min, 37°C.
The target of the next test is T5, mouse NMBR (Mus musculus, UniProt O54799).
T5 sequence (O54799 1-390): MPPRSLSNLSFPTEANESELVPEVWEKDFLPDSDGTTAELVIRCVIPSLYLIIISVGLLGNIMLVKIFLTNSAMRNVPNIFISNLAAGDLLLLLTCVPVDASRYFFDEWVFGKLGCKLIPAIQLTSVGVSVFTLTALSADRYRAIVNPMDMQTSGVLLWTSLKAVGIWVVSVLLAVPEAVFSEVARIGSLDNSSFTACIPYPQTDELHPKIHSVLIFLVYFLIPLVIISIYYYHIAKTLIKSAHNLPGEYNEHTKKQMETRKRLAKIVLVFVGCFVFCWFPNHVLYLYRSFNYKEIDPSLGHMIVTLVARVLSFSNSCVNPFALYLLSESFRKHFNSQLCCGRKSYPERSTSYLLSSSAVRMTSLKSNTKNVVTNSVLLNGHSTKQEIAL
In words: [3H]Inositol phosphate generation, mNMBR/BALB cells. It counts as cell-based. The note with it: read-out: EC50 Mouse NMBR mNMBR/BALB; [3H]IP production, 60 min, 37°C.

“And” between values parts separate entries of the source, which are not always exact repeats. Identical values can stand only once. Like-named read-outs stand apart in the source and are kept apart here.

Sequence of human NMBR (P28336 whole entry): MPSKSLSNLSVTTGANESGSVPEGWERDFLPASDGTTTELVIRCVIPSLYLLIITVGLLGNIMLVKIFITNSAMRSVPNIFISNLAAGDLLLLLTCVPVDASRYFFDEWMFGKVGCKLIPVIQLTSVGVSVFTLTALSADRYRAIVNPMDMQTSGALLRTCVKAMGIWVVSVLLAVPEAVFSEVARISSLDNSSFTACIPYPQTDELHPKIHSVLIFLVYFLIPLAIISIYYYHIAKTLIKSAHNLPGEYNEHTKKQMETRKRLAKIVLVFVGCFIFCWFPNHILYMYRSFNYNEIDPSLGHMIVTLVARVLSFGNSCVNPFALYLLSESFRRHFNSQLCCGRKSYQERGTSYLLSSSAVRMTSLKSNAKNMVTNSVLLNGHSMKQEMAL
Sequence of mouse GRPR (P21729 whole entry): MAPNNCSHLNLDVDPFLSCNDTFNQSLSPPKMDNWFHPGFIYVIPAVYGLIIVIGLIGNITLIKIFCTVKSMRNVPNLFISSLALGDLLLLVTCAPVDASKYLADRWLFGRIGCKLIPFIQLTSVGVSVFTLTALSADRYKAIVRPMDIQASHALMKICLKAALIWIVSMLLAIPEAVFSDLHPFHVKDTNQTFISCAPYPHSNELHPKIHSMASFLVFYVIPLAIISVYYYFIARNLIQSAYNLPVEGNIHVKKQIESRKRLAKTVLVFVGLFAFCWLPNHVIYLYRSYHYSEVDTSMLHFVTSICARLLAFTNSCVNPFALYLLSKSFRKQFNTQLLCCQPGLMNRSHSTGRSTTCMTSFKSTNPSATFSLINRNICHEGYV
Sequence of rat GRPR (P52500 whole entry): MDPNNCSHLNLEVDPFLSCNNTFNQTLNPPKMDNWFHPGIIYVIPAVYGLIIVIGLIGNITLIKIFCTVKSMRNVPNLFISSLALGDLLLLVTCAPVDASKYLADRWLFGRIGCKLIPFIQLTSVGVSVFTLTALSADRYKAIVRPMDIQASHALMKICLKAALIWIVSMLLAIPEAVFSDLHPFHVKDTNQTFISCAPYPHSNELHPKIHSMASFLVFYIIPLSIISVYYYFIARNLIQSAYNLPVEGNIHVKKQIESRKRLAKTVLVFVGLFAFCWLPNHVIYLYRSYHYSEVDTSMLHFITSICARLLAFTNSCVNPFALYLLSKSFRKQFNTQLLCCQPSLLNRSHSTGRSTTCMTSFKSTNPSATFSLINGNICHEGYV
Sequence of human GRPR (P30550 whole entry): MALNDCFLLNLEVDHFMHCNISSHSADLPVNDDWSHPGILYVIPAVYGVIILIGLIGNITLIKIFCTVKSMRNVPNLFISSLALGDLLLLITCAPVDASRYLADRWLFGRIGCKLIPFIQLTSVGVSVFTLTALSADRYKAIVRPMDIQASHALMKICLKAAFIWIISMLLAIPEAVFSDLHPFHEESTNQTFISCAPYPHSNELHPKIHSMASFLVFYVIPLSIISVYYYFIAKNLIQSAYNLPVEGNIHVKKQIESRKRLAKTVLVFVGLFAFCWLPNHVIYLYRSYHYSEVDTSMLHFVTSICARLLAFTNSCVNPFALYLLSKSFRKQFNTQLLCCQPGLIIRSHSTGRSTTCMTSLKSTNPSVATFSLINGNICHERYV

Consider `Cc1ccc(Oc2cccc(CC(=O)N3CCNc4nc(C(F)(F)F)ccc4[C@H]3CC(=O)O)c2)cn1` [9F, [(5R)-4-((3-[(6-methylpyridin-3-yl)oxy]phenyl)acetyl)-8-(trifluoromethyl)-2,3,4,5-tetrahydro-1H-pyrido[2,3-e][1, 4]diazepin-5-yl]acetic acid], for which the “lower affinity compared with 9G” value on human BRS-3 [1] was 1.7-13 fold. The “lower potency than 9G or 9D” value at human BRS-3 [2] (hBRS-3/BALB cells) worked out at 4.3 fold. Moreover, the EC50 on human BRS-3 [2] was 39 nM; on human BRS-3 [2] (listed as 9 F), 39.6 ± 1 nM; at human GRPR it was above 3000 nM; at human NMBR it was above 3000 nM; on rat BRS-3 it was 295 ± 0.5 nM; at rat GRPR it was above 3000 nM. The EC50 at rat NMBR was above 3000 nM; at mouse BRS-3, 86.8 ± 0.8 nM; on mouse GRPR, above 3000 nM; on mouse NMBR, above 3000 nM. The “less potent than MK-5046” value is 8 fold on rat BRS-3 (rBRS-3/BALB cells) and 5 fold at mouse BRS-3 (mBRS-3/BALB cells). For the same molecule, the “lower potency than 9G and 3F” value at rat BRS-3 (rBRS-3/BALB cells) worked out at 7.8 fold. On mouse BRS-3 (mBRS-3/BALB cells), the “lower potency compared to 9D or 9G” value is on record as 4.3 fold.
Consider `CC(C)COc1cccc(CC(=O)N2CCNc3nc(C(F)(F)F)ccc3[C@H]2CC(=O)O)c1` [9G, [(5R)-4-([3-(2-methylpropoxy)phenyl]acetyl)-8-(trifluoromethyl)-2,3,4,5-tetrahydro-1H-pyrido[2,3-e][1, 4]diazepin-5-yl]acetic acid], for which the “affinity greater than MK-5046” value at human BRS-3 [1] is reported as 1.5 fold. For the same molecule, the “IC50/ EC50 hBRS-3/BALB” value on human BRS-3 [2] (binding IC50 over [3H]IP EC50, hBRS-3/BALB cells, measure of receptor spareness) turned out to be 7.6. The EC50 at human BRS-3 [2] is 9 nM; on human BRS-3 [2] (listed as 9 G) it was 9.2 ± 0.39 nM; at human GRPR it was above 3000 nM; at human NMBR it was above 3000 nM; at rat BRS-3, 37.9 ± 0.8 nM; at rat GRPR, above 3000 nM. The EC50 is above 3000 nM on rat NMBR, 20.1 ± 0.9 nM at mouse BRS-3, above 3000 nM at mouse GRPR and above 3000 nM at mouse NMBR. The “less potent than MK-5046” value was 165 fold on rat BRS-3 (rBRS-3/BALB cells); 3.5–3.8 fold and 4 fold on mouse BRS-3 (mBRS-3/BALB cells).
